In one experiment the test system is A-431. The experiment in a line: Compound was evaluated for cell growth inhibition against A 431 cell line by irradiation in the presence of examined compound. The class given is functional, cell-based. The settings on record: Homo sapiens, A-431, light or radiation study.
For experiment [1], the system named is Nucleic Acid. As to the kind of experiment: Rate constant of the photoreaction between compound and DNA. The format is nucleic-acid assay. The following applies: Bos taurus.
The next experiment concerns HL-60. As to the kind of experiment: Compound was evaluated for cell growth inhibition against HL 60 cell line by irradiation in the presence of examined compound. The following applies: Homo sapiens, HL-60, light or radiation study. The class given is functional, cell-based.
Experiment [2] deals with Nucleic Acid. The experiment in a line: Binding parameters of complexes between compound and DNA. The following applies: Bos taurus. The format is nucleic-acid assay.
The species named for experiment [3] is Cavia porcellus. As to the kind of experiment: Compound was tested for skin photosensitizing potency in guinea pig, after exposure to 50 microg cm e-2,and 20 kJ m e-2 of UVA; Absent. The format is functional, organism-based.
In a further experiment the test system is HeLa. The experiment in a line: Compound was evaluated for cell growth inhibition against HeLa cell line by irradiation in the presence of examined compound. The settings on record: Homo sapiens, light or radiation study. The class given is functional, cell-based.
The subject of experiment [4] is Cavia porcellus. The experiment in a line: Compound was tested for skin photosensitizing potency in guinea pig, after exposure to 50 microg cm e-2,and 20 kJ m e-2 of UVA; strong(with edema). The format is functional, organism-based.
The species entered for experiment [5] is Cavia porcellus. The experiment in a line: Compound was tested for skin photosensitizing potency in guinea pig, after exposure to 50 microg cm e-2,and 20 kJ m e-2 of UVA; Medium. The format is functional, organism-based.

Activity calls are given as the source filed them. No cut-off for these calls is given here. Some results are limits rather than exact numbers.

On to `COc1cc2occ(C)c2c2oc(=O)cc(C)c12`, for which the IC50 in the experiment on A-431 came to 1320 nM; with HL-60 it was 690 nM; in the experiment on HeLa it was 1260 nM. In the experiment with Nucleic Acid [1], this compound returned a Rate constant of 2.2 min⁻¹. In the experiment with Nucleic Acid [2], this compound returned a K of 3700 M⁻¹. Also, the Formation of erythema entry in the experiment listed under Cavia porcellus [3] is “inactive”.

Regarding `COc1c2occc2cc2ccc(=O)oc12` [METHOXSALEN], the IC50 is 2480 nM in the experiment with A-431, 750 nM with HL-60 and 3160 nM in the experiment on HeLa. Moreover, the Formation of erythema result in the experiment with Cavia porcellus [4] was “Active”.

For `COc1cc2occ(C)c2c2oc(=O)c(C)cc12`, the figures for the IC50 in the experiment with A-431, with HL-60 and in the experiment on HeLa were 1370 nM, 590 nM and 1060 nM, respectively. Moreover, the Rate constant with Nucleic Acid [1] amounted to 0.17 min⁻¹. The compound further showed a K in the experiment with Nucleic Acid [2] of 3100 M⁻¹. Also, the Formation of erythema result in the experiment listed under Cavia porcellus [3] is “inactive”.

With `COc1c2cc(C)c(=O)oc2cc2occ(C)c12`, the results for the half-inhibitory concentration (IC50) in the experiment on A-431, in the experiment with HL-60 and in the experiment with HeLa were 7750 nM, 2720 nM and 6830 nM, respectively. Also, the Rate constant in the experiment with Nucleic Acid [1] turned out to be 0.32 min⁻¹. The Formation of erythema result in the experiment listed under Cavia porcellus [5] is on record as “Medium”. In the experiment with Nucleic Acid [2], the K stood at 920 M⁻¹.

On to `COc1c2c(C)coc2cc2oc(=O)cc(C)c12`, for which the concentration for half-maximal inhibition (IC50) is 1350 nM with A-431, 670 nM in the experiment with HL-60 and 1760 nM with HeLa. Further, the Rate constant with Nucleic Acid [1] was determined as 2.1 min⁻¹. Further, the K in the experiment with Nucleic Acid [2] worked out at 630 M⁻¹. The Formation of erythema result in the experiment listed under Cavia porcellus [3] is “inactive”.

On to `COc1cc2occc2c2oc(=O)ccc12` [ISOBERGAPTENE], for which the IC50 in the experiment on A-431 is 7720 nM; in the experiment on HL-60, over 10000 nM; with HeLa, over 10000 nM. Moreover, the Formation of erythema result in the experiment listed under Cavia porcellus [3] is “inactive”.

One may read the IC50 as the concentration needed to halve the response being measured.

Values taken from ChEMBL document CHEMBL1129027, “4'-Methyl derivatives of 5-MOP and 5-MOA: synthesis, photoreactivity, and photobiological activity” (J Med Chem, 1996).
